Test results taken from article PMC3134468, “Functions of Some Capsular Polysaccharide Biosynthetic Genes in Klebsiella pneumoniae NTUH K-2044” (PLoS ONE, 2011).

Biological target: T1, WcaG (KP3709) (Klebsiella pneumoniae, UniProt A0ACD7U4D6)
T1 construct: His-tagged (pET28a), expressed in E. coli BL21 star (DE3)
Assay: HPLC product analysis
Type: biochemical
Conditions: coupled with Gmd from GDP-mannose, pH 8.0
Source text: HPLC product analysis on WcaG (KP3709) | GDP-mannose+NADPH+KP3711+KP3709

NC(=O)C1=CN([C@@H]2O[C@H](COP(=O)(O)OP(=O)(O)OC[C@H]3O[C@@H](n4cnc5c(N)ncnc54)[C@H](OP(=O)(O)O)[C@@H]3O)[C@@H](O)[C@H]2O)C=CC1 [NADPH]
HPLC product analysis: GDP-mannose+NADPH+KP3711+KP3709
